Laboratory results published in patent US4256742A, “Antidepressant oxime ethers of dibenzocycloheptaziridones” (E. I. Du Pont de Nemours and Company, priority 1979, dated 1981).
Counter-ions that a name gives are not always drawn. Like-named read-outs stand apart in the source and are kept apart here.

Key:
[1] = system: tetrabenazine-induced sedation and depression; test: Antitetrabenazine test: prevention of tetrabenazine-induced sedation and ptosis in mice; type: in vivo, mice (Carworth CF1 S female); settings: tetrabenazine 32 mg/kg i.p. 30 min later, examined 1 h after antagonist; for ED50: Mus musculus
Procedure: This mouse test is predictive of human antidepressant response (Everett, "The Dopa Response Petentiation Test and Its Use in Screening for Antidepressant Drugs", pp. 164-167 in "Antidepressant Drugs" [Proceedings of the First International Symposium], S. Garattini and M. N. G. Dukes, eds. 1967).
Groups of 10 Carworth CF1 S female mice, 18-21 g each, were fasted 1.5 hours and were intubated with antagonist compounds at oral doses of 0, 0.33, 1, 3, 9, 27, and 81 mg/kg in 0.20 ml of 1% Methocel. The mice were challenged 30 minutes later with tetrabenazine (as the methane-sulfonate),32 mg/kg intraperitoneally (dissolved in 0.20 ml 0.05 M KCl at pH 2.0). One hour after antagonist (30 minutes after tetrabenazine), the mice were examined for signs of exploratory activity and ptosis (eyelid closure). Normal exploratory activity (relief from sedation) was recorded when a mouse lifted by the tail from a group of 10 in a testing box and placed on a stainless steel testing box lid (12.5"×8" with 0.33" mesh) either turned its head horizontally 30° in both directions or moved to the edge of the screen within 10 seconds after being placed on the screen. Relief from ptosis was recorded when exactly two seconds after placing the mouse facing the observer, lid closure was less than 50% in both eyes. Table 1 gives the results in mg/kg for examples of the invention and for the established standard antidepressant, amitriptyline.

[2] = Water solubility of the salts; type: physicochemical; settings: salt as isolated
[3] = oral, female mice, normal exploratory activity (relief from sedation), read-out: ED50 in antitetrabenazine test, blockade of exploratory loss (Explor.)
[4] = oral, female mice, relief from ptosis, read-out: ED50 in antitetrabenazine test, blockade of ptosis
[5] = po, 1 h, read-out: ED50 in antitetrabenazine test, blockade of ptosis, oral, female mice, relief from ptosis
[6] = po, 1 h, read-out: ED50 in antitetrabenazine test, blockade of exploratory loss (Explor.), oral, female mice, normal exploratory activity (relief from sedation)

## CN(C)CCC=C1c2ccccc2CCc2ccccc21 [AMTRIPTYLINE, amitriptyline, reference compound]
[1]; [3]
  ED50: 2.6 mg/kg
[1]; [4]
  ED50: 1.2 mg/kg

## CN(C)CCON=C1c2ccccc2C2NC2c2ccccc21 (stereo not shown) [Example 2, O-[2-(Dimethylamino)ethyl]oxime of 1a,10b-dihydrodibenzo[3,4,6,7]cyclohept[1,2-b]azirin-6(1H)-one]
[1]; oral, female mice, normal exploratory activity (relief from sedation), listed as R^2=CH2 CH2 N(CH3)2, R^1=H, Z=--, 60 min
  ED50 in antitetrabenazine test, blockade of exploratory loss (Explor.): 1.1 mg/kg
[1]; oral, female mice, relief from ptosis, listed as R^2=CH2 CH2 N(CH3)2, R^1=H, Z=--, 60 min
  ED50 in antitetrabenazine test, blockade of ptosis: 0.65 mg/kg

## CN(C)CCON=C1c2ccccc2C2C(c3ccccc31)N2C (stereo not shown) [Example 3, O-[2-(Dimethylamino)ethyl]oxime of 1a,10b-Dihydrodibenzo-[3,4,6,7]cyclohept[1,2-b]-N-methylazirin-6(1H)-one]
[1]; [5]
  ED50: 0.65 mg/kg
[1]; oral, female mice, normal exploratory activity (relief from sedation), listed as R^2=CH2 CH2 N(CH3)2, R^1=CH3, Z=--, 60 min
  ED50 in antitetrabenazine test, blockade of exploratory loss (Explor.): 0.93 mg/kg

## NCCON=C1c2ccccc2C2NC2c2ccccc21 (stereo not shown) [Example 7]
[1]; oral, female mice, normal exploratory activity (relief from sedation), listed as R^2=CH2 CH2 NH2, R^1=H, Z=--, 60 min
  ED50 in antitetrabenazine test, blockade of exploratory loss (Explor.): 6.6 mg/kg
[1]; oral, female mice, relief from ptosis, listed as R^2=CH2 CH2 NH2, R^1=H, Z=--, 60 min
  ED50 in antitetrabenazine test, blockade of ptosis: 1.3 mg/kg

## CNCCON=C1c2ccccc2C2NC2c2ccccc21 (stereo not shown) [Example 8]
[1]; oral, female mice, normal exploratory activity (relief from sedation), listed as R^2=CH2 CH2 NHCH3, R^1=H, Z=--, 60 min
  ED50 in antitetrabenazine test, blockade of exploratory loss (Explor.): 1.9 mg/kg
[1]; oral, female mice, relief from ptosis, listed as R^2=CH2 CH2 NHCH3, R^1=H, Z=--, 60 min
  ED50 in antitetrabenazine test, blockade of ptosis: 0.57 mg/kg

## CN(C)CCCON=C1c2ccccc2C2NC2c2ccccc21 (stereo not shown) [Example 9]
[1]; [6]
  ED50: 32 mg/kg
[1]; [5]
  ED50: 18 mg/kg

## CCNCCON=C1c2ccccc2C2NC2c2ccccc21 (stereo not shown) [Example 14]
[1]; [6]
  ED50: 9 mg/kg
[1]; [5]
  ED50: 4.3 mg/kg

## CCCCNCCON=C1c2ccccc2C2NC2c2ccccc21 (stereo not shown) [Example 15]
[1]; [6]
  ED50: > 81 mg/kg
[1]; [5]
  ED50: 13.3 mg/kg

## CN(C)CCON=C1c2ccccc2C2C(c3ccccc31)N2C (stereo not shown) [Example 16, Tartaric acid Salt of O-[2-(dimethylamino)ethyl]oxime of 1a, 10b-dihydrodibenzo[3,4,6,7]cyclohept[1,2-b]-N-methylazirin-6(1H)-one]
[2]
  water solubility (in words): watersoluble
[1]; oral, female mice, normal exploratory activity (relief from sedation), listed as R^2=CH2 CH2 N(CH3)2, R^1=CH3, Z=. Tartrate, 60 min
  ED50 in antitetrabenazine test, blockade of exploratory loss (Explor.): 2.7 mg/kg
[1]; oral, female mice, relief from ptosis, listed as R^2=CH2 CH2 N(CH3)2, R^1=CH3, Z=. Tartrate, 60 min
  ED50 in antitetrabenazine test, blockade of ptosis: 0.93 mg/kg

## CN(C)CCON=C1c2ccccc2C2NC2c2ccccc21 (stereo not shown) [Example 17]
[2]
  water solubility (in words): Water Soluble
[1]; oral, female mice, normal exploratory activity (relief from sedation), listed as R^2=CH2 CH2 N(CH3)2, R^1=H, Z=. Tartrate, 60 min
  ED50 in antitetrabenazine test, blockade of exploratory loss (Explor.): 0.57 mg/kg
[1]; oral, female mice, relief from ptosis, listed as R^2=CH2 CH2 N(CH3)2, R^1=H, Z=. Tartrate, 60 min
  ED50 in antitetrabenazine test, blockade of ptosis: 0.33 mg/kg

## CN(C)CCON=C1c2ccccc2C2NC2c2ccccc21 (stereo not shown) [Example 18]
[2]
  water solubility (in words): Water Soluble
[1]; oral, female mice, normal exploratory activity (relief from sedation), listed as R^2=CH2 CH2 N(CH3)2, R^1=H, Z=. HCl, 60 min
  ED50 in antitetrabenazine test, blockade of exploratory loss (Explor.): 2.2 mg/kg
[1]; oral, female mice, relief from ptosis, listed as R^2=CH2 CH2 N(CH3)2, R^1=H, Z=. HCl, 60 min
  ED50 in antitetrabenazine test, blockade of ptosis: 1.0 mg/kg

## NCCON=C1c2ccccc2C2NC2c2ccccc21 (stereo not shown) [Example 19]
[2]
  water solubility (in words): Water Soluble
[1]; oral, female mice, normal exploratory activity (relief from sedation), listed as R^2=CH2 CH2 NH2, R^1=H, Z=drawing 41, 60 min
  ED50 in antitetrabenazine test, blockade of exploratory loss (Explor.): 14. mg/kg
[1]; oral, female mice, relief from ptosis, listed as R^2=CH2 CH2 NH2, R^1=H, Z=drawing 41, 60 min
  ED50 in antitetrabenazine test, blockade of ptosis: 3.4 mg/kg

## CNCCON=C1c2ccccc2C2NC2c2ccccc21 (stereo not shown) [Example 20]
[2]
  water solubility (in words): Water Soluble
[1]; oral, female mice, normal exploratory activity (relief from sedation), listed as R^2=CH2 CH2 NHCH3, R^1=H, Z=drawing 42, 60 min
  ED50 in antitetrabenazine test, blockade of exploratory loss (Explor.): 6.2 mg/kg
[1]; oral, female mice, relief from ptosis, listed as R^2=CH2 CH2 NHCH3, R^1=H, Z=drawing 42, 60 min
  ED50 in antitetrabenazine test, blockade of ptosis: 1.3 mg/kg

## CN(C)CCON=C1c2ccccc2C2C(c3ccccc31)N2CC1CC1 (stereo not shown) [Example 21]
[1]; [6]
  ED50: 11.8 mg/kg
[1]; [5]
  ED50: 10.8 mg/kg

## CN(C)CCON=C1c2ccccc2C2C(c3ccccc31)N2CC1CCC1 (stereo not shown) [Example 22]
[1]; [6]
  ED50: 16 mg/kg
[1]; [5]
  ED50: 10.8 mg/kg

## CC(=O)N1C2c3ccccc3C(=NOCCN(C)C)c3ccccc3C21 (stereo not shown) [R^2=CH2 CH2 N(CH3)2; R^1=drawing 43; Z=--]
[1]; [3]
  ED50: 19 mg/kg
[1]; [4]
  ED50: 13 mg/kg

## CN(C)CCON=C1c2ccccc2C2C(c3ccccc31)N2C(=O)c1ccccc1 (stereo not shown) [R^2=CH2 CH2 N(CH3)2; R^1=drawing 44; Z=--]
[1]; [3]
  ED50: 5.5 mg/kg
[1]; [4]
  ED50: 5.2 mg/kg

## c1ccc2c(c1)C(=NOCCN1CCCCC1)c1ccccc1C1NC21 (stereo not shown) [R^2=drawing 45; R^1=H; Z=--]
[1]; [6]
  ED50: > 81 mg/kg
[1]; [5]
  ED50: 8.3 mg/kg

## c1ccc2c(c1)C(=NOCCN1CCOCC1)c1ccccc1C1NC21 (stereo not shown) [R^2=drawing 46; R^1=H; Z=--]
[1]; [6]
  ED50: 16 mg/kg
[1]; [5]
  ED50: 5.2 mg/kg
